Measurements from US11925654B2, “Esters of 2-deoxy-monosaccharides with anti proliferative activity” (Board of Regents, The University of Texas System, priority 2013, dated 2024).

What was measured:
U87 = assay: MTS cytotoxicity assay, 72 hours drug exposure, U87 brain tumor cells; assay type: cell-based; details: Homo sapiens, U-87 MG, final DMSO 0.5%
Method: (§1) In the first set of assays, IC50 values were determined for each compound after 72 hours of drug exposure in each of the tumor cell lines. Cell lines tested include D54, U87, Panc-1, AsPc-1, Colo357-FG, L3.6, H226, H352, H441 cell lines.
U87 is a human primary glioblastoma cell line formally known as U-87 MG. It has epithelial morphology, and was obtained from a patient with stage four cancer. U-87 MG can be obtained from the American Type Culture Collection (ATCC) where it is known by the accession number HTB-14. The entire sequence of the genome of U-87 MG has recently been published in PLoS Genetics, 2010 January; 6(1): e1000832. This is a hypodiploid human cell line with the modal chromosome number of 44 occurring in 48% of cells. The rate of higher ploidy was 5.9%. Twelve markers were common to all cells, including der(1)t(1;3) (p22;q21), der(16)t(1;16) (p22;p12), del(9) (p13) and nine others. The marker der(1) had two copies in most cells. There was only one copy of normal X. N1, N6 and N9 were not found.
(§2) All cell lines were maintained in respective growth media at 37° C., 5% CO2 and 98% humidity. Cells were treated with the compounds and all drug concentrations were diluted so that the final concentration of DMSO is 0.5%. The cytotoxic effect was measured by the MTS Assay (Tetrazolium), which is a colorimetric method for determining the number of viable cells. After the 72 hours of incubation with drug, Promega's MTS reagent were added to the cells according to manufacturer's instructions and incubated for 2 hours. The plates were read at 490 nm and the resulting data graphed with GraphPad Prism 5 software.
(§3) IC50 was calculated, which is approximate equivalent of IG50 (concentration at which 50% growth inhibition is measured). The IC50 values represent […] of the drug concentration.

Colo357-FG = assay: MTS cytotoxicity assay, 72 hours drug exposure, Colo357-FG pancreatic cancer cells; assay type: cell-based; details: Homo sapiens, COLO 357/FG, final DMSO 0.5%
Method: as §1
COLO 357 FG is continuous human cell line, COLO 357, with exceptional characteristics was derived from a metastasis of a pancreatic adenocarcinoma. COLO 357 grew as an adhering monolayer with a cell doubling time of 21 h and grew with 10% clonal efficiency in soft agar. COLO 357 cells had numerous lamellar inclusions. The cells elaborated the pancreatic enzymes trypsin, elastase and chymotrypsin. COLO 357 also secreted appreciable amounts of carcinoembryonic antigen and human chorionic gonadotropin. […] Nine nucleolar organizing regions were found by silver-stained metaphase preparations. COLO 357 has been “fingerprinted” for seven allelic isozymes.
as §2, §3

CCCC(=O)OC[C@H]1OC(OC(=O)CCC)C[C@@H](O)[C@@H]1O (stereo partly drawn) [WP1217, 1,6-Di-O-Butyryl-2-Deoxy-D-Glucopyranose]
IC50 (U87): 2330 µM

CCC(CC)C(=O)OC1CC(OC(=O)C(CC)CC)C(O)C(CO)O1 [WP1261, 1,3-Di-O-(2-Ethyl)Butyryl-2-Deoxy-β-D-Glucopyranose]
IC50 (U87): 741 µM | IC50 (Colo357-FG): 340 µM

CCCCC(=O)OCC1OC(O)CC(OC(=O)CCCC)C1O (centres unmarked) [WP1232]
IC50 (U87): 250 µM | IC50 (Colo357-FG): 490 µM

CCCC(=O)OC[C@H]1OC(O)C[C@@H](O)[C@@H]1OC(=O)CCC (stereo partly drawn) [WP1214, 4,6-Di-O-Butyryl-2-Deoxy-D-Glucopyranose]
IC50 (U87): 300 µM | IC50 (Colo357-FG): 440 µM

CCCC(CCC)C(=O)O[C@H]1C[C@@H](O)[C@H](O)[C@@H](CO)O1 [WP1490, 1-O-Valproyl-2-Deoxy-β-D-Glucopyranose]
IC50 (U87): 2400 µM | IC50 (Colo357-FG): 2000 µM

CCC(=O)OC1CC(O)C(O)C(CO)O1 (centres unmarked) [WP1216]
IC50 (U87): 3580 µM

CCC(CC)C(=O)OCC1OC(O)CC(O)C1O [WP1319, 6-O-(2-Ethyl)Butyric-2-Deoxy-D-Glucopyranose]
IC50 (U87): 3000 µM | IC50 (Colo357-FG): 1700 µM

CCC(CC)C(=O)OC1CC(O)C(O)C(CO)O1 [WP1474, 1-O-(2-Ethyl)Butyryl-2-Deoxy-β-D-Glucopyranose]
IC50 (U87): 2400 µM

CCCC(CCC)C(=O)O[C@@H]1CC(O)O[C@H](CO)[C@H]1O (stereo partly drawn) [WP1512, 3-O-Valproyl-2-Deoxy-D-Glucopyranose]
IC50 (U87): 740 µM

CCCC(=O)OCC1OC(O)CC(OC(=O)CCC)C1O (centres unmarked) [WP1213]
IC50 (U87): 240 µM | IC50 (Colo357-FG): 380 µM

CCCC(CCC)C(=O)O[C@H]1[C@H](O)CC(O)O[C@@H]1CO (stereo partly drawn) [WP1513, 4-O-Valproyl-2-Deoxy-D-Glucopyranose]
IC50 (U87): 1200 µM | IC50 (Colo357-FG): 1200 µM

CC(C)CC(=O)OCC1OC(O)CC(OC(=O)CC(C)C)C1O (centres unmarked) [WP1263]
IC50 (U87): 37 µM | IC50 (Colo357-FG): 160 µM

CCC(CC)C(=O)OC1CC(O)OC(CO)C1O [WP1342, 3-O-(2-Ethyl)Butyryl-2-Deoxy-D-Glucopyranose]
IC50 (U87): 2400 µM | IC50 (Colo357-FG): 13200 µM

CCC(=O)OCC1OC(O)CC(OC(=O)CC)C1O (centres unmarked) [WP1231]
IC50 (U87): 380 µM | IC50 (Colo357-FG): 550 µM

O=C(OCC1OC(O)CC(OC(=O)C2CCCC2)C1O)C1CCCC1 (centres unmarked) [WP1343]
IC50 (U87): 109 µM | IC50 (Colo357-FG): 750 µM

CCC(CC)C(=O)OCC1OC(O)CC(OC(=O)C(CC)CC)C1O (centres unmarked) [WP1234]
IC50 (U87): 55 µM | IC50 (Colo357-FG): 100 µM

CCC(CC)C(=O)OCC1OC(O)CC(O)C1OC(=O)C(CC)CC [WP1241, 4,6-Di-O-(2-Ethyl)Butyryl-2-Deoxy-α-D-Glucopyranose]
IC50 (U87): 123 µM | IC50 (Colo357-FG): 280 µM

CCCC(CCC)C(=O)OC[C@H]1OC(O)C[C@@H](O)[C@@H]1O (stereo partly drawn) [WP1491, 6-O-Valproyl-2-Deoxy-D-Glucopyranose]
IC50 (U87): 2100 µM

CCC(CC)C(=O)OCC1OCCC(OC(=O)C(CC)CC)C1O (centres unmarked) [WP1317]
IC50 (U87): 2100 µM | IC50 (Colo357-FG): 2100 µM

CCC(CC)C(=O)OCC1OCC(O)C(OC(=O)C(CC)CC)C1O (centres unmarked) [WP1357]
IC50 (Colo357-FG): 540 µM

CCCCC(=O)OC[C@H]1OC(O)C[C@@H](O)[C@@H]1OC(=O)CCCC (stereo partly drawn) [WP1233, 4,6-Di-O-Valeroyl-2-Deoxy-D-Glucopyranose]
IC50 (U87): 200 µM | IC50 (Colo357-FG): 230 µM

CCC(=O)OCC1OC(O)CC(O)C1OC(=O)CC (centres unmarked) [WP1242]
IC50 (U87): 490 µM | IC50 (Colo357-FG): 6380 µM
